According to patent publication US20160029626A1 (priority 2011, published 2016):
“Also recorded” adds a separate entry of the source.

Tests used:
[1] = tested on: orange pear plants; test: Plant development under NAC treatment (phytotoxicity); type: in vivo, orange pear (Citrus sinenses)
Description: 2. Experiments using NAC on infected plants: An analysis was performed with quantitative PCR, as described in sequence, to quantify the initial population of bacteria in plants. The plants were then transferred to Leonard pots, constructed from 750 mL glass bottles, cut and painted with metallic paint to prevent light penetration. Previously autoclaved, vermiculite and sand were added to the top of the vessel and in the collecting part, a Hoagland Arnon (1950) nutrient solution (FIG. 8). Two experiments were performed with different doses of N-acetyl L-cysteine (NAC), both conducted in a greenhouse (see table 1 below).
The first of the experiments was a pilot, in which 120 mg and 600 mg of N-acetyl L -cysteine (NAC) were added to 250 mL of Hoagland & Arnon (1950). Control plants were also maintained without addition of N-acetyl L-cysteine (NAC). The second test had plants to which were added 120 mg, 600 mg and 1500 mg L30 N-acetyl cysteine (NAC) along with 250 mL of nutrient solution of Hoagland & Arnon (1950) and control experiments without the addition of the compound. 4 biological repetitions were performed for each treatment in each experiment.

[2] = tested on: citrus variegated chlorosis (CVC), X. fastidiosa; set-up: species or system orange pear (Citrus sinenses); conditions: in vivo
[3] = tested on: biofilm of X. fastidiosa; type: cell-based, Xylella fastidiosa 9a5c strain
[4] = tested on: X. fastidiosa; type: cell-based, Xylella fastidiosa 9a5c strain
[5] = Degradation of NAC in Hoagland nutrient solution in greenhouse (without plants), HPLC; type: physicochemical; conditions: 187.5 mg/mL expected without degradation
Description: A study to check the degradation of N-acetyl L-cysteine (NAC) was also performed in a Hoagland nutrient solution under the same conditions in which the in vivo experiment was carried out. The nutrient solution of Hoagland was prepared and placed in the receiving party of potted Leonard (without plants), as well as 600 mg N-acetyl L-cysteine (NAC).

[6] = tested on: Streptococcus epidermidis, and Haemophilus influenzae, Moraxella catarrhalis; conditions: Zheng et al., 1999; OLOFSSON et al., 2003; cited from earlier work
[7] = tested on: X. fastidiosa biofilm; type: cell-based, Xylella fastidiosa 9a5c strain
[8] = Quantification of NAC by HPLC in nutrient solution of Leonard pots with plants (uptake by the plant); conditions: for Measured Conc of NAC in the samples collected: nutrient solution after one day with the plant
[9] = tested on: X. fastidiosa; set-up: species or system orange pear (Citrus sinenses); conditions: in vivo
[10] = tested on: Peseudomonas aeruginosa, Klebsiella pneumoniae Enterobacter cloacae, and Staphylococcus aureus; conditions: Parry et al. (1976); cited from earlier work
[11] = tested on: X. fastidiosa; set-up: species or system orange pear (Citrus sinenses); conditions: in vivo; remark: listed apart in the source

For `CC(=O)N[C@@H](CS)C(=O)O` [NAC, N-acetyl L-cysteine], the plant development ([1]; 1500 mg NAC in 250 mL nutrient solution) was “plant development was clearly affected; also recorded: fall of leaves, wilting and visible damage to the physiological development of the plant”, the “plant development after interruption of treatment” value ([1]; 1500 mg NAC, two months in soil without treatment) was “remained less developed” and the plant development ([1]; lower doses (120 and 600 mg) NAC) was “do not cause problems for plant development”. The “CVC symptoms after interruption of treatment” value [2] was “symptoms were observed to be less severe; also recorded: chlorosis spots were not observed”, the “CVC symptoms in the leaves” value [2] was “visible reduction of symptoms; also recorded: some points chlorosis in the leaves, but in smaller quantities; also recorded: hardly possible to see symptoms; also recorded: visibly smaller” and the “control of the bacterium (symptoms and number of bacterial cells in leaves)” value [2] was “effective in controlling the bacterium”. For the same compound, the “symptoms in treated plants” value [2] was “significant reduction of symptoms”, the “symptoms later than two months after interruption of treatment” value [2] was “resurgence of symptoms” and the “lowering of EPS between control and treatment” value ([3]; 6 mg/ml NAC) was “about 45%”. The “total amount of EPS vs control” value ([3]; NAC 1, 2, 6 mg/mL) was “In control, the total amount of EPS was greater”, the “CFU/mL in biofilm vs control” value ([4]; 1 mg/mL NAC) was “lower than in the control biofilm” and the “reduction of number of living cells present in the biofilm” value ([4]; 6 mg/mL NAC) was roughly 100%. For the same compound, the “toxic action towards X. fastidiosa cells” value ([4]; in vitro, 1.0, 2.0 or 6.0 mg/mL) was “toxic action; also recorded: toxic to the cells of bacteria”, the “CFU of planktonic cells in serial dilution” value ([4]; planktonic cells, NAC treatments, after 3 washes) was “not possible to count any CFU” and the “concentration of NAC remaining in Hoagland solution” value (shortened to “concentration of NAC remaining”) ([5]; after 1 day in greenhouse) was 143140 µg/mL. The “concentration of NAC remaining” value ([5]; after 7 days in greenhouse) was 63220 µg/mL, the “concentration of NAC remaining” value ([5]; after 14 days in greenhouse) was 3150 µg/mL and the “adhesion of human pathogenic bacteria in epithelial cells and surface abiotic” value [6] was “reduce the adhesion”. The “cell mass of biofilms compared to the control condition” value ([7]; different doses of NAC (1, 2, 6 mg/mL), 14 days) was “reduced compared to the control condition”, the “cell mass of planktonic cells” value ([7]; different doses of NAC (1, 2, 6 mg/mL), planktonic fraction) was “increase in mass” and the biofilm formation ([7]; doses of 1.0, 2.0 or 6.0 mg/mL) was “inhibited biofilm formation”. The “absorption of the substance by the plant” value ([8]; 1500 mg NAC in 250 mL) was “absorption of the substance by the plant does not occur”, the “transport of NAC by the plant” value ([8]; measured concentrations below those expected (lower doses)) was “could be transported by the plant” and the “Measured Conc of NAC in the samples collected” value (from here on “Measured Conc of NAC”) ([8]; total NAC 120 mg (expected 0.48 mg/mL)) was 0.288 mg/mL. For the same compound, the “Measured Conc of NAC” value ([8]; total NAC 600 mg (expected 2.4 mg/mL)) was 1.98 mg/mL, the “Measured Conc of NAC” value ([8]; total NAC 1500 mg (expected 6.0 mg/mL)) was 6.156 mg/mL and the “number of X. fastidiosa cells isolated from plants after treatment” value [9] was “decrease in the number of X. fastidiosa cells; also recorded: strong decrease of bacteria”. The “efficiency regarding the adhesion of bacteria” value [10] was “demonstrated efficiency” and the “amount of bacteria in each plant by qPCR” value [11] was “does not appear to have been affected”.
